Measured values: patent publication US20190297889A1, “USE OF A DIFLUORO-(2-HYDROXYPROPYL)PYRIDINE COMPOUND AS A FUNGICIDE FOR CONTROL OF PHYTOPATHOGENIC FUNGI OF RICE” (Dow AgroSsciences LLC, priority 2016, published 2019)
Where two headings read alike, the source gives them in different places.

Legend:
Pyricularia oryzae = type: in vivo; settings: 2 sprays, rice field
Rhizoctonia solani = assay: Field assessment of Rhizoctonia solani (RHIZSO, sheath blight) in rice; type: in vivo; settings: 2 sprays
Procedure: The experimental plots were inoculated with Rhizoctonia solani_2 days after the first application at growth stage BBCH 59 of rice.
Disease infection percentage was calculated as (lesion lengths)/(total sheath lengths)×100% on 6 plants per plot randomly. Sheath blight infection was assessed three times, 7 days after application A (DAAA) plus 7 and 14 DAAB. The disease infection was recorded following EPPO PP1/26 guideline prescriptions.

Cochliobolus miyabeanus = assay: Field assessment of Cochliobolus miyabeanus (COCHMI, brown spot) in rice; settings: for Percent Control (AUDPC), Panicle: panicles; for Percent Control (AUDPC), Plot: whole plot foliage
Procedure: The applications were made as early curative treatments, with the first application coming at the vegetative stage (50 to 70 DAP; max tillering to booting). The treatments were part of an experimental trial designed as a randomized complete block with four replications and a plot of approximately 5×2 m.
Disease assessments were made every seven days until three weeks after the second application. Disease severity was recorded as a percentage of visual diseased foliage on whole plot and as a percentage of visual infection on the rice panicles. Area under the disease progress curve (AUDPC) was calculated for each plot using the sets of recorded severity data. Relative AUDPC (% control based on AUDPC) was calculated as percent of the nontreated control. Also included in the study is the effect on efficacy of the addition of two adjuvants at varied rates: Agnique BP-420 (50% w/w) at rates from 0.05% to 0.3%; and Agnique BP-420 (50% w/w) plus MSO (methylated seed oil) at rates from 0.25% to 0.75%.

[1] = test system: Gaeumannomyces graminis var. graminis; assay: Field assessment of Gaeumannomyces graminis var. graminis (GAEUGR) in rice; type: in vivo
Source text: The applications were made as preventative treatments, with no infection at the time of application. The first symptoms of […] were observed after three applications.

[2] = 100 g ai/ha, Adjuvant A (Agnique BP-420) 0.2% v/v
[3] = 150 g ai/ha, Adjuvant A (Agnique BP-420) 0.3% v/v
[4] = 125 g ai/ha, commercial standard

N#Cc1ccc(Oc2ccc(C(F)(F)C(O)(Cn3ncnc3S)c3ccc(F)cc3F)nc2)cc1 (stereo not drawn) [Compound I, 4-((6-(2-(2,4-difluorophenyl)-1,1-difluoro-2-hydroxy-3-(5-mercapto-1H-1,2,4-triazol-1-yl)propyl)pyridin-3-yl)oxy)benzonitrile]
D (1-25): Disease (% Control) RHIZSO, based on AUDPC (Rhizoctonia solani; 50 g ai/ha)
C (26-50): Disease (% Control) PYRIOR, based on AUDPC (Pyricularia oryzae; 50 g ai/ha) | Disease (% Control) RHIZSO, based on AUDPC (Rhizoctonia solani; 100 g ai/ha) | Disease (% Control) RHIZSO, based on AUDPC (Rhizoctonia solani; 150 g ai/ha) | Percent Control (AUDPC), Panicle (Cochliobolus miyabeanus; 50 g ai/ha, […]) | Percent Control (AUDPC), Plot (Cochliobolus miyabeanus; 50 g ai/ha, […]) | % Control (AUDPC of visual infection on the plant) (Cochliobolus miyabeanus; 50 g ai/ha, adjuvant None) | Percent Control (AUDPC), Panicle (Cochliobolus miyabeanus; 75 g ai/ha, […]) | Percent Control (AUDPC), Plot (Cochliobolus miyabeanus; 75 g ai/ha, […]) | Percent Control (AUDPC), Panicle (Cochliobolus miyabeanus; 100 g ai/ha, […]) | Percent Control (AUDPC), Plot (Cochliobolus miyabeanus; 100 g ai/ha, […]) | Percent Control (AUDPC), Plot (Cochliobolus miyabeanus; 125 g ai/ha, […]) | % Control (AUDPC of visual infection on the plant) ([1]; 100 g ai/ha, adjuvant None)
A (76-100): Disease (% Control) PYRIOR, based on AUDPC (Pyricularia oryzae; 150 g ai/ha) | Disease (% Control) PYRIOR, based on AUDPC (Pyricularia oryzae; 200 g ai/ha) | % Control (AUDPC of visual infection on the plant) (Cochliobolus miyabeanus; [3]) | % Control (AUDPC of visual infection on the plant) ([1]; 200 g ai/ha, Adjuvant A (Agnique BP-420) 0.4% v/v)
B (51-75): Disease (% Control) PYRIOR, based on AUDPC (Pyricularia oryzae; 100 g ai/ha) | Disease (% Control) RHIZSO, based on AUDPC (Rhizoctonia solani; 200 g ai/ha) | % Control (AUDPC of visual infection on the plant) (Cochliobolus miyabeanus; 50 g ai/ha, Adjuvant A (Agnique BP-420) 0.05% v/v) | % Control (AUDPC of visual infection on the plant) (Cochliobolus miyabeanus; 50 g ai/ha, Adjuvant A (Agnique BP-420) 0.1% v/v) | % Control (AUDPC of visual infection on the plant) (Cochliobolus miyabeanus; 50 g ai/ha, Adjuvant A (Agnique BP-420) 0.15% v/v) | % Control (AUDPC of visual infection on the plant) (Cochliobolus miyabeanus; 50 g ai/ha, Adjuvant B (Agnique BP-420 + MSO) 0.25% v/v) | % Control (AUDPC of visual infection on the plant) (Cochliobolus miyabeanus; 50 g ai/ha, Adjuvant B (Agnique BP-420 + MSO) 0.5% v/v) | % Control (AUDPC of visual infection on the plant) (Cochliobolus miyabeanus; 50 g ai/ha, Adjuvant B (Agnique BP-420 + MSO) 0.75% v/v) | % Control (AUDPC of visual infection on the plant) (Cochliobolus miyabeanus; [2]) | Percent Control (AUDPC), Panicle (Cochliobolus miyabeanus; 125 g ai/ha, […]) | Percent Control (AUDPC), Panicle (Cochliobolus miyabeanus; 150 g ai/ha, […]) | Percent Control (AUDPC), Plot (Cochliobolus miyabeanus; 150 g ai/ha, […]) | % Control (AUDPC of visual infection on the plant) ([1]; 100 g ai/ha, Adjuvant A (Agnique BP-420) 0.1% v/v) | % Control (AUDPC of visual infection on the plant) [1, 2] | % Control (AUDPC of visual infection on the plant) ([1]; 100 g ai/ha, Adjuvant A (Agnique BP-420) 0.3% v/v) | % Control (AUDPC of visual infection on the plant) ([1]; 100 g ai/ha, Adjuvant B (Agnique BP-420 + MSO) 0.5% v/v) | % Control (AUDPC of visual infection on the plant) ([1]; 100 g ai/ha, Adjuvant B (Agnique BP-420 + MSO) 1.0% v/v) | % Control (AUDPC of visual infection on the plant) ([1]; 100 g ai/ha, Adjuvant B (Agnique BP-420 + MSO) 1.5% v/v) | % Control (AUDPC of visual infection on the plant) [1, 3]

N#CC(CCc1ccc(Cl)cc1)(Cn1cncn1)c1ccccc1 (stereo not drawn) [Fenbuconazole, reference compound]
B (51-75): % Control (AUDPC of visual infection on the plant) ([1]; 144 g ai/ha, adjuvant Inex-A 0.15% v/v)

CCCC1COC(Cn2cncn2)(c2ccc(Cl)cc2Cl)O1 (stereo not drawn) [Propiconazole, reference compound]
B (51-75): Percent Control (AUDPC), Panicle (Cochliobolus miyabeanus; [4]) | Percent Control (AUDPC), Plot (Cochliobolus miyabeanus; [4])
